Counter-ions that a name gives are not always drawn. Like-named read-outs stand apart in the source and are kept apart here.
Experiments:
Assay type in all cases: cell-based
Enterococcus faecium = assay: in vitro bacteriostatic activity, agar dilution MIC
Enterococcus faecalis = assay: as above
[1] = system: Staphylococcus epidermidis MSSE; assay: as above; conditions: Staphylococcus epidermidis
[2] = system: Staphylococcus aureus MSSA; assay: as above; conditions: Staphylococcus aureus, MSSA
[3] = system: Staphylococcus epidermidis ATCC 12228; assay: in vitro bacteriostatic activity, agar dilution MIC, quality control strain; conditions: ATCC12228
Streptococcus pneumoniae = assay: in vitro bacteriostatic activity, agar dilution MIC

Q: With `CO/N=C(\C(=O)N[C@@H]1C(=O)N2C(C(=O)[O-])=C(C[N+]3(C)CCCC3)CS[C@H]12)c1csc(N)n1` [cefepime, Cefepime hydrochloride] as the compound, how does the MIC (Enterococcus faecium; Enterococcus faecium 12-7) read?
A: >128 µg/mL

Q: And the MIC (Enterococcus faecium; Enterococcus faecium 12-8)?
A: >128 µg/mL

Q: What about the MIC (Enterococcus faecium; Enterococcus faecium 12-9) of the same compound?
A: >128 µg/mL

Q: And the MIC (Enterococcus faecium; Enterococcus faecium 12-10)?
A: >128 µg/mL

Q: What about the MIC (Enterococcus faecium; Enterococcus faecium 12-11) of the same compound?
A: >128 µg/mL

Q: What about the MIC (Enterococcus faecium; Enterococcus faecium 12-12) of the same compound?
A: >128 µg/mL

Q: What about the MIC (Enterococcus faecium; Enterococcus faecium 12-13) of the same compound?
A: >128 µg/mL

Q: And the MIC (Enterococcus faecium; Enterococcus faecium 12-14)?
A: >128 µg/mL

Q: What about the MIC (Enterococcus faecium; Enterococcus faecium 12-15) of the same compound?
A: >128 µg/mL

Q: What about the MIC (Enterococcus faecium; Enterococcus faecium 12-16) of the same compound?
A: >128 µg/mL

Q: What about the MIC (Enterococcus faecium; Enterococcus faecium, ATCC33186, Enterococcus faecium ATCC 33186) of the same compound?
A: 16 µg/mL

Q: And the MIC (Enterococcus faecalis; Enterococcus faecalis 12-11)?
A: >128 µg/mL

Q: What about the MIC (Enterococcus faecalis; Enterococcus faecalis 12-13) of the same compound?
A: >128 µg/mL

Q: And the MIC (Enterococcus faecalis; Enterococcus faecalis, ATCC29212, Enterococcus faecalis ATCC 29212)?
A: 16 µg/mL

Q: And the MIC (Enterococcus faecalis; Enterococcus faecalis, ATCC51299, Enterococcus faecalis (high endurance) ATCC 51299)?
A: 32 µg/mL

Q: What about the MIC (Enterococcus faecalis; Enterococcus faecalis, Enterococcus faecalis 12-12) of the same compound?
A: 4 µg/mL

Q: And the MIC (Enterococcus faecalis; Enterococcus faecalis, Enterococcus faecalis 12-14)?
A: 8 µg/mL

Q: And the MIC (Enterococcus faecalis; Enterococcus faecalis, Enterococcus faecalis 12-17)?
A: 32 µg/mL

Q: What about the MIC (Enterococcus faecalis; Enterococcus faecalis, Enterococcus faecalis 12-18) of the same compound?
A: 16 µg/mL

Q: And the MIC (Enterococcus faecalis; Enterococcus faecalis, Enterococcus faecalis 12-19)?
A: 16 µg/mL

Q: What about the MIC (Enterococcus faecalis; Enterococcus faecalis, Enterococcus faecalis 12-20) of the same compound?
A: 16 µg/mL

Q: What about the MIC (Enterococcus faecalis; Enterococcus faecalis, Enterococcus faecalis 12-21) of the same compound?
A: 16 µg/mL

Q: What about the MIC (Enterococcus faecalis; Enterococcus faecalis, Enterococcus faecalis 12-22) of the same compound?
A: 32 µg/mL

Q: And the MIC ([1]; Staphylococcus epidermidis MSSE 12-11)?
A: 1 µg/mL

Q: And the MIC ([1]; Staphylococcus epidermidis MSSE 12-12)?
A: 1 µg/mL

Q: What about the MIC ([1]; Staphylococcus epidermidis MSSE 12-13) of the same compound?
A: 1 µg/mL

Q: And the MIC ([1]; Staphylococcus epidermidis MSSE 12-14)?
A: 16 µg/mL

Q: And the MIC ([1]; Staphylococcus epidermidis MSSE 12-15)?
A: 16 µg/mL

Q: And the MIC ([1]; Staphylococcus epidermidis MSSE 12-16)?
A: 0.25 µg/mL

Q: And the MIC ([1]; Staphylococcus epidermidis MSSE 12-17)?
A: 2 µg/mL

Q: And the MIC ([1]; Staphylococcus epidermidis MSSE 12-18)?
A: 1 µg/mL

Q: And the MIC ([1]; Staphylococcus epidermidis MSSE 12-19)?
A: 1 µg/mL

Q: What about the MIC ([1]; Staphylococcus epidermidis MSSE 12-20) of the same compound?
A: 2 µg/mL

Q: What about the MIC ([2]; Staphylococcus aureus MSSA 12-11) of the same compound?
A: 4 µg/mL

Q: And the MIC ([2]; Staphylococcus aureus MSSA 12-13)?
A: 4 µg/mL

Q: What about the MIC ([2]; Staphylococcus aureus MSSA 12-14) of the same compound?
A: 2 µg/mL

Q: And the MIC ([2]; Staphylococcus aureus MSSA 12-15)?
A: 2 µg/mL

Q: What about the MIC ([2]; Staphylococcus aureus MSSA 12-16) of the same compound?
A: 4 µg/mL

Q: And the MIC ([2]; Staphylococcus aureus MSSA 12-17)?
A: 4 µg/mL

Q: And the MIC ([2]; Staphylococcus aureus MSSA 12-18)?
A: 2 µg/mL

Q: And the MIC ([2]; Staphylococcus aureus MSSA 12-19)?
A: 2 µg/mL

Q: And the MIC ([2]; Staphylococcus aureus MSSA 12-20)?
A: 2 µg/mL

Q: What about the MIC ([2]; Staphylococcus aureus MSSA 12-21) of the same compound?
A: 4 µg/mL

Q: What about the MIC ([3]; Staphylococcus epidermidis) of the same compound?
A: 1 µg/mL

Q: For `CC1(C)S[C@@H]2[C@H](NC(=O)Cc3ccccc3)C(=O)N2[C@H]1C(=O)O` [penicillin, Benzylpenicillin sodium], which MIC (Enterococcus faecium; Enterococcus faecium, ATCC33186, Enterococcus faecium ATCC 33186, read-out: MIC) is on record?
A: 2 µg/mL

Q: And the MIC (Enterococcus faecium; Enterococcus faecium, Enterococcus faecium 12-7, read-out: MIC)?
A: 128 µg/mL

Q: And the MIC (Enterococcus faecium; Enterococcus faecium, Enterococcus faecium 12-8, read-out: MIC)?
A: > 128 µg/mL

Q: And the MIC (Enterococcus faecium; Enterococcus faecium, Enterococcus faecium 12-9, read-out: MIC)?
A: 128 µg/mL

Q: And the MIC (Enterococcus faecium; Enterococcus faecium, Enterococcus faecium 12-10, read-out: MIC)?
A: > 128 µg/mL

Q: What about the MIC (Enterococcus faecium; Enterococcus faecium, Enterococcus faecium 12-11, read-out: MIC) of the same compound?
A: 128 µg/mL

Q: And the MIC (Enterococcus faecium; Enterococcus faecium, Enterococcus faecium 12-12, read-out: MIC)?
A: > 128 µg/mL

Q: What about the MIC (Enterococcus faecium; Enterococcus faecium, Enterococcus faecium 12-13, read-out: MIC) of the same compound?
A: > 128 µg/mL

Q: What about the MIC (Enterococcus faecium; Enterococcus faecium, Enterococcus faecium 12-14, read-out: MIC) of the same compound?
A: > 128 µg/mL

Q: And the MIC (Enterococcus faecium; Enterococcus faecium, Enterococcus faecium 12-15, read-out: MIC)?
A: 128 µg/mL

Q: What about the MIC (Enterococcus faecium; Enterococcus faecium, Enterococcus faecium 12-16, read-out: MIC) of the same compound?
A: 128 µg/mL

Q: What about the MIC (Enterococcus faecalis; Enterococcus faecalis, ATCC29212, Enterococcus faecalis ATCC 29212, read-out: MIC) of the same compound?
A: 1 µg/mL

Q: And the MIC (Enterococcus faecalis; Enterococcus faecalis, ATCC51299, Enterococcus faecalis (high endurance) ATCC 51299, read-out: MIC)?
A: 1 µg/mL

Q: What about the MIC (Enterococcus faecalis; Enterococcus faecalis, Enterococcus faecalis 12-11, read-out: MIC) of the same compound?
A: > 128 µg/mL

Q: What about the MIC (Enterococcus faecalis; Enterococcus faecalis, Enterococcus faecalis 12-12, read-out: MIC) of the same compound?
A: 1 µg/mL

Q: What about the MIC (Enterococcus faecalis; Enterococcus faecalis, Enterococcus faecalis 12-13, read-out: MIC) of the same compound?
A: 32 µg/mL

Q: And the MIC (Enterococcus faecalis; Enterococcus faecalis, Enterococcus faecalis 12-14, read-out: MIC)?
A: 1 µg/mL

Q: And the MIC (Enterococcus faecalis; Enterococcus faecalis, Enterococcus faecalis 12-17, read-out: MIC)?
A: 2 µg/mL

Q: And the MIC (Enterococcus faecalis; Enterococcus faecalis, Enterococcus faecalis 12-18, read-out: MIC)?
A: 2 µg/mL

Q: And the MIC (Enterococcus faecalis; Enterococcus faecalis, Enterococcus faecalis 12-19, read-out: MIC)?
A: 2 µg/mL

Q: What about the MIC (Enterococcus faecalis; Enterococcus faecalis, Enterococcus faecalis 12-20, read-out: MIC) of the same compound?
A: 2 µg/mL

Q: What about the MIC (Enterococcus faecalis; Enterococcus faecalis, Enterococcus faecalis 12-21, read-out: MIC) of the same compound?
A: 2 µg/mL

Q: What about the MIC (Enterococcus faecalis; Enterococcus faecalis, Enterococcus faecalis 12-22, read-out: MIC) of the same compound?
A: 1 µg/mL

Q: And the MIC ([1]; Staphylococcus epidermidis MSSE 12-11, read-out: MIC)?
A: 0.03 µg/mL

Q: What about the MIC ([1]; Staphylococcus epidermidis MSSE 12-12, read-out: MIC) of the same compound?
A: 0.06 µg/mL

Q: And the MIC ([1]; Staphylococcus epidermidis MSSE 12-13, read-out: MIC)?
A: 0.5 µg/mL

Q: What about the MIC ([1]; Staphylococcus epidermidis MSSE 12-14, read-out: MIC) of the same compound?
A: 8 µg/mL

Q: What about the MIC ([1]; Staphylococcus epidermidis MSSE 12-15, read-out: MIC) of the same compound?
A: 8 µg/mL

Q: What about the MIC ([1]; Staphylococcus epidermidis MSSE 12-16, read-out: MIC) of the same compound?
A: 0.06 µg/mL

Q: What about the MIC ([1]; Staphylococcus epidermidis MSSE 12-17, read-out: MIC) of the same compound?
A: 0.03 µg/mL

Q: What about the MIC ([1]; Staphylococcus epidermidis MSSE 12-18, read-out: MIC) of the same compound?
A: 0.06 µg/mL

Q: What about the MIC ([1]; Staphylococcus epidermidis MSSE 12-19, read-out: MIC) of the same compound?
A: 0.06 µg/mL

Q: And the MIC ([1]; Staphylococcus epidermidis MSSE 12-20, read-out: MIC)?
A: 0.03 µg/mL

Q: And the MIC ([2]; Staphylococcus aureus MSSA 12-11, read-out: MIC)?
A: 0.5 µg/mL

Q: What about the MIC ([2]; Staphylococcus aureus MSSA 12-13, read-out: MIC) of the same compound?
A: 0.5 µg/mL

Q: And the MIC ([2]; Staphylococcus aureus MSSA 12-14, read-out: MIC)?
A: 0.5 µg/mL

Q: And the MIC ([2]; Staphylococcus aureus MSSA 12-15, read-out: MIC)?
A: 0.25 µg/mL

Q: What about the MIC ([2]; Staphylococcus aureus MSSA 12-16, read-out: MIC) of the same compound?
A: 0.5 µg/mL

Q: And the MIC ([2]; Staphylococcus aureus MSSA 12-17, read-out: MIC)?
A: 0.125 µg/mL

Q: And the MIC ([2]; Staphylococcus aureus MSSA 12-18, read-out: MIC)?
A: 0.25 µg/mL

Q: And the MIC ([2]; Staphylococcus aureus MSSA 12-19, read-out: MIC)?
A: 0.25 µg/mL

Q: And the MIC ([2]; Staphylococcus aureus MSSA 12-20, read-out: MIC)?
A: 0.5 µg/mL

Q: What about the MIC ([2]; Staphylococcus aureus MSSA 12-21, read-out: MIC) of the same compound?
A: 0.25 µg/mL

Q: And the MIC ([3]; Staphylococcus epidermidis ATCC 12228, read-out: MIC)?
A: 0.5 µg/mL

Q: What about the MIC (Streptococcus pneumoniae; ATCC49619, Streptococcus pneumonia ATCC 49619) of the same compound?
A: 0.2 µg/mL

Q: And the MIC (Streptococcus pneumoniae; Streptococcus pneumonia 12-6)?
A: 0.05 µg/mL

Q: And the MIC (Streptococcus pneumoniae; Streptococcus pneumonia 12-7)?
A: 0.1 µg/mL

Q: What about the MIC (Streptococcus pneumoniae; Streptococcus pneumonia 12-8) of the same compound?
A: 0.1 µg/mL

Q: What about the MIC (Streptococcus pneumoniae; Streptococcus pneumonia 12-9) of the same compound?
A: 0.1 µg/mL

Q: And the MIC (Streptococcus pneumoniae; Streptococcus pneumonia 12-10)?
A: 0.2 µg/mL

Q: And the MIC (Streptococcus pneumoniae; Streptococcus pneumoniae 12-1)?
A: 0.1 µg/mL

Q: And the MIC (Streptococcus pneumoniae; Streptococcus pneumoniae 12-2)?
A: 0.2 µg/mL

Q: And the MIC (Streptococcus pneumoniae; Streptococcus pneumoniae 12-3)?
A: 0.1 µg/mL

Q: And the MIC (Streptococcus pneumoniae; Streptococcus pneumoniae 12-4)?
A: 0.4 µg/mL

Q: And the MIC (Streptococcus pneumoniae; Streptococcus pneumoniae 12-5)?
A: 0.05 µg/mL

From EP2826473A1, “NOVEL USE OF PATCHOULOL” (Chengdu Huasun Group Inc., Ltd., priority 2012, dated 2013)
